Measurements from PMC9184463, “Structural basis of ligand binding modes of human EAAT2” (Nature Communications, 2022).
“And” between values parts separate entries of the source, which are not always exact repeats. Identical values can stand only once.

Experiments:
hEAAT2 = conditions: cited from earlier work
hEAAT2 mutant D475A = biological target: T1, hEAAT2 mutant D475A (Homo sapiens, UniProt P43004, D475A); experiment: whole-cell patch-clamp, hEAAT2 mutant D475A in HEK293T cells; format: cell-based; conditions: 0 mV; for WAY-213613-inhibited current, normalized (MEAN): D475A
T1 construct: Strep Tag II (N); superfolder GFP (sfGFP) (N); expressed in transfected cells; host or cells: HEK293T
Method: (§1) Human embryonic kidney 293T (HEK293T) cells were cultured in Dulbecco’s Modified Eagle Medium (DMEM, Gibco) media supplemented with 15% (v/v) fetal bovine serum (FBS, PAN-Biotech) at 37 °C with 5% CO2. HEK293T cells were grown in the culture dishes (d = 3.5 cm) (Thermo Fisher Scientific) for 24 h and then 1 μg hEAAT2 wild-type and mutant plasmids for per dishes were used to transiently transfect HEK293T using 0.7 μg Lipofectamine 2000 Reagent (Thermo Fisher Scientific). Cells were analyzed using electrophysiological experiments between 24 and 40 h after transfection at room temperature (21–25 °C).
(§2) Electrophysiological experiments were performed as described previously with a minor modification. External buffer contained 140 mM NaCl, 2 mM MgCl2, 2 mM CaCl2, and 10 mM HEPES (pH = 7.4 with NaOH and osmolarity of ∼310 mosmol L^−1) and while internal pipette solution comprised of 130 mM NaSCN, 2 mM MgCl2, 10 mM EGTA, 10 mM HEPES (pH = 7.4 with NaOH and osmolarity of ∼310 mosmol L^−1) and 10 mM glutamate. 50 mM WAY-213613 stock solutions were prepared in dimethyl sulfoxide (DMSO), followed by dilutions to working concentrations with the above-mentioned external buffer. […] Whole cell patch-clamp experiment recordings were made from isolated GFP-positive HEK293T cells (hEAAT2 wild type and mutants). In all, 3–6 MΩ was used to fire a polished pipette (Sutter Instrument). […] Cells were immersed in the above-mentioned external buffer supplemented with a specified concentration of glutamate or WAY-213613. Glutamate-induced anion current, Na^+-dependent anion leak current and glutamate transport current or WAY-213613 inhibited anion leak currents were recorded using an EPC-10 amplifier (HEKA Electronic) at a 20 kHz sample rate with low pass filter at 5 kHz. All experiments were executed at 0 mV. After the cell current was stabilized, glutamate or WAY-213613 was sustained at the indicated concentrations from external dosing for at least 6 s. Subsequently, the cell was washed away with external buffer to start a new round of applications or end the experiment. The plateau currents were used for the following calculations. For analysis, the data was acquired by PatchMaster program (HEKA Electronic) at 5 s after recording. Nonlinear dose–response relationships were fitted into a Michaelis–Menten-like equation shown as below to obtain the apparent Km and Ki values in the presence of glutamate or WAY-213613.1 I/Imax=Km/i/C+Km/i In this equation, I represent the current at different glutamate or inhibitor concentrations, and Imax represents the maximal current at the saturating concentration of glutamate or inhibitor. [C] represents the concentration of glutamate or inhibitor. Km/i represents the apparent constant.

hEAAT2 mutant L467I = biological target: T2, hEAAT2 mutant L467I (Homo sapiens, UniProt P43004, L467I); experiment: whole-cell patch-clamp, hEAAT2 mutant L467I in HEK293T cells; format: cell-based; conditions: 0 mV; for WAY-213613-inhibited current, normalized (MEAN): L467I
T2 construct: Strep Tag II (N); superfolder GFP (sfGFP) (N); expressed in transfected cells; host or cells: HEK293T
Method: as §1, §2

hEAAT3 = conditions: cited from earlier work
hEAAT2 mutant R478A = biological target: T3, hEAAT2 mutant R478A (Homo sapiens, UniProt P43004, R478A); experiment: whole-cell patch-clamp, hEAAT2 mutant R478A in HEK293T cells; format: cell-based; conditions: 0 mV; for WAY-213613-inhibited current, normalized (MEAN): R478A
T3 construct: Strep Tag II (N); superfolder GFP (sfGFP) (N); expressed in transfected cells; host or cells: HEK293T
Method: as §1, §2

hEAAT2 mutant S441G = biological target: T4, hEAAT2 mutant S441G (Homo sapiens, UniProt P43004, S441G); experiment: whole-cell patch-clamp, hEAAT2 mutant S441G in HEK293T cells; format: cell-based; conditions: 0 mV; for WAY-213613-inhibited current, normalized (MEAN): S441G
T4 construct: Strep Tag II (N); superfolder GFP (sfGFP) (N); expressed in transfected cells; host or cells: HEK293T
Method: as §1, §2

hEAAT1 = conditions: cited from earlier work
hEAAT2 mutant I464V = biological target: T5, hEAAT2 mutant I464V (Homo sapiens, UniProt P43004, I464V); experiment: whole-cell patch-clamp, hEAAT2 mutant I464V in HEK293T cells; format: cell-based; conditions: 0 mV; for WAY-213613-inhibited current, normalized (MEAN): I464V
T5 construct: Strep Tag II (N); superfolder GFP (sfGFP) (N); expressed in transfected cells; host or cells: HEK293T
Method: as §1, §2

wild-type hEAAT2 = biological target: T6, wild-type hEAAT2 (Homo sapiens, UniProt P43004); experiment: whole-cell patch-clamp of hEAAT2-associated anion current, wild-type hEAAT2 in HEK293T cells; format: cell-based; conditions: for WAY-213613-inhibited current, normalized (MEAN): WT
T6 construct: Strep Tag II (N); superfolder GFP (sfGFP) (N); expressed in transfected cells; host or cells: HEK293T
Method: as §1, §2

hEAAT2 mutant V468I = biological target: T7, hEAAT2 mutant V468I (Homo sapiens, UniProt P43004, V468I); experiment: whole-cell patch-clamp, hEAAT2 mutant V468I in HEK293T cells; format: cell-based; conditions: 0 mV; for WAY-213613-inhibited current, normalized (MEAN): V468I
T7 construct: Strep Tag II (N); superfolder GFP (sfGFP) (N); expressed in transfected cells; host or cells: HEK293T
Method: as §1, §2

[1] = 0.3 μM WAY-213613, normalized to current at 100 μM
[2] = 1 μM WAY-213613, normalized to current at 100 μM
[3] = 3 μM WAY-213613, normalized to current at 100 μM
[4] = 10 μM WAY-213613, normalized to current at 100 μM
[5] = 30 μM WAY-213613, normalized to current at 100 μM
[6] = 100 μM WAY-213613, normalization reference
[7] = 0.03 μM WAY-213613, normalized to current at 30 μM
[8] = 0.1 μM WAY-213613, normalized to current at 30 μM
[9] = 0.3 μM WAY-213613, normalized to current at 30 μM
[10] = 1 μM WAY-213613, normalized to current at 30 μM
[11] = 3 μM WAY-213613, normalized to current at 30 μM
[12] = 10 μM WAY-213613, normalized to current at 30 μM
[13] = 30 μM WAY-213613, normalization reference

T3 sequence (P43004 whole entry R478A): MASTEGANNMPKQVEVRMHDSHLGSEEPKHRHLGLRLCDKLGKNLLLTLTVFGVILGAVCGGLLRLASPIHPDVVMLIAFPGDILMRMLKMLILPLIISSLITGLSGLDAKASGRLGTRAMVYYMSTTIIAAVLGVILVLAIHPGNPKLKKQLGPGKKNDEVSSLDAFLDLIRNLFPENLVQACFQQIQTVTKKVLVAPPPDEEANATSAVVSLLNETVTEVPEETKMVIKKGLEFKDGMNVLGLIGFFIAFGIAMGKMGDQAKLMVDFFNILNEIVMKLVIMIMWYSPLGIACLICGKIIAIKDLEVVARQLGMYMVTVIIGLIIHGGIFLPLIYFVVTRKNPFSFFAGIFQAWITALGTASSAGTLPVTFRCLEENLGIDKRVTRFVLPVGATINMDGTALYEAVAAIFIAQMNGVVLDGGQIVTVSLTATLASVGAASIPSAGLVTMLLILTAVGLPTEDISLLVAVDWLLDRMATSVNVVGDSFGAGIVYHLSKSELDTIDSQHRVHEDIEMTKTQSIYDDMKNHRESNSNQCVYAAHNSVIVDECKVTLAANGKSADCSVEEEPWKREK
T2 sequence (P43004 whole entry L467I): as the sequence (P43004 whole entry R478A) above, with L467I, A478R counted along it
T4 sequence (P43004 whole entry S441G): as the sequence (P43004 whole entry R478A) above, with S441G, A478R counted along it
T5 sequence (P43004 whole entry I464V): as the sequence (P43004 whole entry R478A) above, with I464V, A478R counted along it
T6 sequence (P43004 whole entry, the tested form may be a part): as the sequence (P43004 whole entry R478A) above, with A478R counted along it
T1 sequence (P43004 whole entry D475A): as the sequence (P43004 whole entry R478A) above, with D475A, A478R counted along it
T7 sequence (P43004 whole entry V468I): as the sequence (P43004 whole entry R478A) above, with V468I, A478R counted along it

NC(CC(=O)Nc1ccc(Oc2cc(F)c(F)cc2Br)cc1)C(=O)O (stereo not drawn) [WAY-213613]
IC50 (hEAAT2): 85 nM
WAY-213613-inhibited current, normalized (MEAN) (hEAAT2 mutant D475A; [1]): 0.06104
WAY-213613-inhibited current, normalized (MEAN) (hEAAT2 mutant D475A; [2]): 0.08742
WAY-213613-inhibited current, normalized (MEAN) (hEAAT2 mutant D475A; [3]): 0.1387
WAY-213613-inhibited current, normalized (MEAN) (hEAAT2 mutant D475A; [4]): 0.2967
WAY-213613-inhibited current, normalized (MEAN) (hEAAT2 mutant D475A; [5]): 0.647
WAY-213613-inhibited current, normalized (MEAN) (hEAAT2 mutant D475A; [6]): 1
Ki (hEAAT2 mutant D475A; D475A mutant, read-out: apparent Ki): 30500 nM
WAY-213613-inhibited current, normalized (MEAN) (hEAAT2 mutant L467I; [7]): 0.06992
WAY-213613-inhibited current, normalized (MEAN) (hEAAT2 mutant L467I; [8]): 0.1548
WAY-213613-inhibited current, normalized (MEAN) (hEAAT2 mutant L467I; [9]): 0.4253
WAY-213613-inhibited current, normalized (MEAN) (hEAAT2 mutant L467I; [10]): 0.7036
WAY-213613-inhibited current, normalized (MEAN) (hEAAT2 mutant L467I; [11]): 0.8764
WAY-213613-inhibited current, normalized (MEAN) (hEAAT2 mutant L467I; [12]): 1.001
WAY-213613-inhibited current, normalized (MEAN) (hEAAT2 mutant L467I; [13]): 1
Ki (hEAAT2 mutant L467I; L467I mutant, read-out: apparent Ki): ~460 nM and 464 nM
selectivity (affinity) for hEAAT2 over hEAAT3 (hEAAT3; hEAAT2 over hEAAT3): 44 fold
IC50 (hEAAT3; hEAAT3): 3800 nM
WAY-213613-inhibited current, normalized (MEAN) (hEAAT2 mutant R478A; [1]): 0.173
WAY-213613-inhibited current, normalized (MEAN) (hEAAT2 mutant R478A; [2]): 0.3915
WAY-213613-inhibited current, normalized (MEAN) (hEAAT2 mutant R478A; [3]): 0.5586
WAY-213613-inhibited current, normalized (MEAN) (hEAAT2 mutant R478A; [4]): 0.7927
WAY-213613-inhibited current, normalized (MEAN) (hEAAT2 mutant R478A; [5]): 0.9136
WAY-213613-inhibited current, normalized (MEAN) (hEAAT2 mutant R478A; [6]): 1
Ki (hEAAT2 mutant R478A; R478A mutant, read-out: apparent Ki): 1680 nM
WAY-213613-inhibited current, normalized (MEAN) (hEAAT2 mutant S441G; [7]): 0.08476
WAY-213613-inhibited current, normalized (MEAN) (hEAAT2 mutant S441G; [8]): 0.2697
WAY-213613-inhibited current, normalized (MEAN) (hEAAT2 mutant S441G; [9]): 0.5414
WAY-213613-inhibited current, normalized (MEAN) (hEAAT2 mutant S441G; [10]): 0.7785
WAY-213613-inhibited current, normalized (MEAN) (hEAAT2 mutant S441G; [11]): 0.8947
WAY-213613-inhibited current, normalized (MEAN) (hEAAT2 mutant S441G; [12]): 0.9736
WAY-213613-inhibited current, normalized (MEAN) (hEAAT2 mutant S441G; [13]): 1
Ki (hEAAT2 mutant S441G; S441G mutant, read-out: apparent Ki): 260 nM
IC50 (hEAAT1; hEAAT1): 5000 nM
selectivity (affinity) for hEAAT2 over hEAAT1 (hEAAT1; hEAAT2 over hEAAT1): 59 fold
WAY-213613-inhibited current, normalized (MEAN) (hEAAT2 mutant I464V; [7]): 0.1438
WAY-213613-inhibited current, normalized (MEAN) (hEAAT2 mutant I464V; [8]): 0.3695
WAY-213613-inhibited current, normalized (MEAN) (hEAAT2 mutant I464V; [9]): 0.6353
WAY-213613-inhibited current, normalized (MEAN) (hEAAT2 mutant I464V; [10]): 0.8468
WAY-213613-inhibited current, normalized (MEAN) (hEAAT2 mutant I464V; [11]): 0.8861
WAY-213613-inhibited current, normalized (MEAN) (hEAAT2 mutant I464V; [12]): 0.98
WAY-213613-inhibited current, normalized (MEAN) (hEAAT2 mutant I464V; [13]): 1
Ki (hEAAT2 mutant I464V; I464V mutant, read-out: apparent Ki): ~170 nM and 166 nM
WAY-213613-inhibited current, normalized (MEAN) (wild-type hEAAT2; 0.01 μM WAY-213613, 0 mV, normalized to current at 30 μM WAY-213613): 0.1531
WAY-213613-inhibited current, normalized (MEAN) (wild-type hEAAT2; 0.03 μM WAY-213613, 0 mV, normalized to current at 30 μM WAY-213613): 0.3093
WAY-213613-inhibited current, normalized (MEAN) (wild-type hEAAT2; 0.1 μM WAY-213613, 0 mV, normalized to current at 30 μM WAY-213613): 0.5406
WAY-213613-inhibited current, normalized (MEAN) (wild-type hEAAT2; 0.3 μM WAY-213613, 0 mV, normalized to current at 30 μM WAY-213613): 0.7864
WAY-213613-inhibited current, normalized (MEAN) (wild-type hEAAT2; 1 μM WAY-213613, 0 mV, normalized to current at 30 μM WAY-213613): 0.9254
WAY-213613-inhibited current, normalized (MEAN) (wild-type hEAAT2; 3 μM WAY-213613, 0 mV, normalized to current at 30 μM WAY-213613): 0.9686
WAY-213613-inhibited current, normalized (MEAN) (wild-type hEAAT2; 30 μM WAY-213613, 0 mV, normalization reference): 1
effect of inhibitor on anion leak conductance (wild-type hEAAT2; wild-type hEAAT2): block the anion leak conductance
Ki (wild-type hEAAT2; wild-type hEAAT2, HEK293T, 0 mV, Michaelis-Menten-like fit, read-out: apparent Ki (inhibition of anion leak current)): 70 ± 30 nM
WAY-213613-inhibited current, normalized (MEAN) (hEAAT2 mutant V468I; [7]): 0.136
WAY-213613-inhibited current, normalized (MEAN) (hEAAT2 mutant V468I; [8]): 0.3481
WAY-213613-inhibited current, normalized (MEAN) (hEAAT2 mutant V468I; [9]): 0.6012
WAY-213613-inhibited current, normalized (MEAN) (hEAAT2 mutant V468I; [10]): 0.8026
WAY-213613-inhibited current, normalized (MEAN) (hEAAT2 mutant V468I; [11]): 0.923
WAY-213613-inhibited current, normalized (MEAN) (hEAAT2 mutant V468I; [12]): 0.993
WAY-213613-inhibited current, normalized (MEAN) (hEAAT2 mutant V468I; [13]): 1
Ki (hEAAT2 mutant V468I; V468I mutant, read-out: apparent Ki): ~200 nM and 196 nM
